Results reported in ChEMBL document CHEMBL2413072, “Synthesis and in vitro anticancer studies of novel C-2 arylidene congeners of lantadenes” (2013).

How the values were obtained:
Format in all cases: functional
PC-3 [1] = assay: Growth inhibition of human PC3 cells assessed as cell growth at 10^-7 M by sulforhodamine B assay; conditions: read-out: Activity
SR = assay: Growth inhibition of human SR cells by sulforhodamine B assay
MOLT-4 = assay: Growth inhibition of human MOLT4 cells assessed as cell growth at 10^-4 M by sulforhodamine B assay; conditions: read-out: Activity
OVCAR-8 = assay: Growth inhibition of human OVCAR8 cells assessed as cell growth at 10^-4 M by sulforhodamine B assay; conditions: read-out: Activity
M14 [2] = assay: Growth inhibition of human M14 cells assessed as cell growth at 10^-8 M by sulforhodamine B assay; conditions: read-out: Activity
NCI-H226 = assay: Growth inhibition of human NCI-H226 cells by sulforhodamine B assay
CAKI-1 [3] = assay: Growth inhibition of human CAKI-1 cells assessed as cell growth at 10^-6 M by sulforhodamine B assay; conditions: read-out: Activity
[4] = Growth inhibition of human Hs 578T cells assessed as cell growth at 10^-7 M by sulforhodamine B assay; conditions: read-out: Activity
HCT-15 = assay: Growth inhibition of human HCT15 cells by sulforhodamine B assay
KM12 = assay: Growth inhibition of human KM12 cells assessed as cell growth at 10^-8 M by sulforhodamine B assay; conditions: read-out: Activity
NCI-H460 = assay: Growth inhibition of human NCI-H460 cells assessed as cell growth at 10^-8 M by sulforhodamine B assay; conditions: read-out: Activity
SNB-19 = assay: Growth inhibition of human SNB19 cells assessed as cell growth at 10^-4 M by sulforhodamine B assay; conditions: read-out: Activity
NCI-H23 = assay: Growth inhibition of human NCI-H23 cells assessed as cell growth at 10^-6 M by sulforhodamine B assay; conditions: read-out: Activity
COLO 205 = assay: Growth inhibition of human COLO205 cells by sulforhodamine B assay
MCF7 = assay: Growth inhibition of human MCF7 cells assessed as cell growth at 10^-8 M by sulforhodamine B assay; conditions: read-out: Activity
U-251 = assay: Growth inhibition of human U251 cells by sulforhodamine B assay
RPMI-8226 = assay: Growth inhibition of human RPMI8226 cells assessed as cell growth at 10^-6 M by sulforhodamine B assay; conditions: read-out: Activity
HOP-62 = assay: Growth inhibition of human HOP62 cells assessed as cell growth at 10^-8 M by sulforhodamine B assay; conditions: read-out: Activity
PC-3 [5] = assay: Growth inhibition of human PC3 cells by sulforhodamine B assay
SNB-75 = assay: Growth inhibition of human SNB75 cells by sulforhodamine B assay
SK-OV-3 [6] = assay: Growth inhibition of human SKOV3 cells assessed as cell growth at 10^-8 M by sulforhodamine B assay; conditions: read-out: Activity
CAKI-1 [7] = assay: Growth inhibition of human CAKI-1 cells by sulforhodamine B assay
OVCAR-4 = assay: Growth inhibition of human OVCAR4 cells assessed as cell growth at 10^-6 M by sulforhodamine B assay; conditions: read-out: Activity
OVCAR-5 [8] = assay: Growth inhibition of human OVCAR5 cells assessed as cell growth at 10^-4 M by sulforhodamine B assay; conditions: read-out: Activity
A498 = assay: Growth inhibition of human A498 cells assessed as cell growth at 10^-8 M by sulforhodamine B assay; conditions: read-out: Activity
MDA-MB-435 = assay: Growth inhibition of human MDA-MB-435 cells assessed as cell growth at 10^-4 M by sulforhodamine B assay; conditions: read-out: Activity
MDA-MB-231 = assay: Growth inhibition of human MDA-MB-231 cells assessed as cell growth at 10^-6 M by sulforhodamine B assay; conditions: read-out: Activity
M14 [9] = assay: Growth inhibition of human M14 cells assessed as cell growth at 10^-6 M by sulforhodamine B assay; conditions: read-out: Activity
SK-MEL-5 = assay: Growth inhibition of human SK-MEL-5 cells by sulforhodamine B assay
NCI-H322M = assay: Growth inhibition of human NCI-H322M cells assessed as cell growth at 10^-8 M by sulforhodamine B assay; conditions: read-out: Activity
M14 [10] = assay: Growth inhibition of human M14 cells by sulforhodamine B assay
Malme-3M [11] = assay: Growth inhibition of human MALME-3M cells assessed as cell growth at 10^-4 M by sulforhodamine B assay; conditions: read-out: Activity
K562 [12] = assay: Growth inhibition of human K562 cells assessed as cell growth at 10^-6 M by sulforhodamine B assay; conditions: read-out: Activity
OVCAR-5 [13] = assay: Growth inhibition of human OVCAR5 cells by sulforhodamine B assay
SK-OV-3 [14] = assay: Growth inhibition of human SKOV3 cells assessed as cell growth at 10^-4 M by sulforhodamine B assay; conditions: read-out: Activity
SK-OV-3 [15] = assay: Growth inhibition of human SKOV3 cells assessed as cell growth at 10^-6 M by sulforhodamine B assay; conditions: read-out: Activity
K562 [16] = assay: Growth inhibition of human K562 cells assessed as cell growth at 10^-8 M by sulforhodamine B assay; conditions: read-out: Activity
Malme-3M [17] = assay: Growth inhibition of human MALME-3M cells assessed as cell growth at 10^-7 M by sulforhodamine B assay; conditions: read-out: Activity
[18] = read-out: LC50 (the source's name)
[19] = read-out: pLC50 (the source's name) (converted)

C/C=C(/C)C(=O)O[C@@H]1CC(C)(C)C[C@H]2C3=CC[C@@H]4[C@@]5(C)CC[C@H](O)C(C)(C)[C@@H]5CC[C@@]4(C)[C@]3(C)CC[C@@]12C(=O)O [Reduced Lantadene A]
growth at 0.1 µM (PC-3 [1]): 88%
GI50 (SR; read-out: GI50): 2.14 µM
CC50 (SR; [18]): > 100 µM
TGI (SR; read-out: TGI): 5.63 µM
GI50 (SR; read-out: pGI50 (converted)): 2.14 µM
CC50 (SR; [19]): > 100 µM
TGI (SR; read-out: pTGI (converted)): 5.62 µM
growth at 100 µM (MOLT-4): -36%
growth at 100 µM (OVCAR-8): -39%
growth at 0.01 µM (M14 [2]): 100%
GI50 (NCI-H226; read-out: GI50): 1.71 µM
LC50 (NCI-H226; read-out: LC50): 8.43 µM
TGI (NCI-H226; read-out: TGI): 3.79 µM
GI50 (NCI-H226; read-out: pGI50 (converted)): 1.7 µM
LC50 (NCI-H226; read-out: pLC50 (converted)): 8.51 µM
TGI (NCI-H226; read-out: pTGI (converted)): 3.8 µM
growth at 1 µM (CAKI-1 [3]): 85%
growth at 0.1 µM [4]: 91%
GI50 (HCT-15; read-out: GI50): 2.58 µM
LC50 (50% lethal concentration) (HCT-15; read-out: LC50): 62.6 µM
TGI (HCT-15; read-out: TGI): 11.5 µM
GI50 (HCT-15; read-out: pGI50 (converted)): 2.57 µM
LC50 (50% lethal concentration) (HCT-15; read-out: pLC50 (converted)): 63.1 µM
TGI (HCT-15; read-out: pTGI (converted)): 11.5 µM
growth at 0.01 µM (KM12): 104%
growth at 0.01 µM (NCI-H460): 101%
growth at 100 µM (SNB-19): -40%
growth at 1 µM (NCI-H23): 98%
GI50 (COLO 205; read-out: GI50): 2.11 µM
GI50 (COLO 205; read-out: pGI50 (converted)): 2.09 µM
growth at 0.01 µM (MCF7): 95%
GI50 (U-251; read-out: GI50): 1.59 µM
CC50 (U-251; [18]): 6.6 µM
TGI (U-251; read-out: TGI): 3.24 µM
GI50 (U-251; read-out: pGI50 (converted)): 1.58 µM
CC50 (U-251; [19]): 6.61 µM
TGI (U-251; read-out: pTGI (converted)): 3.24 µM
growth at 1 µM (RPMI-8226): 70%
growth at 0.01 µM (HOP-62): 93%
GI50 (PC-3 [5]; read-out: GI50): 1.34 µM
CC50 (PC-3 [5]; [18]): 6.01 µM
TGI (PC-3 [5]; read-out: TGI): 2.84 µM
GI50 (PC-3 [5]; read-out: pGI50 (converted)): 1.35 µM
CC50 (PC-3 [5]; [19]): 6.03 µM
TGI (PC-3 [5]; read-out: pTGI (converted)): 2.82 µM
GI50 (SNB-75; read-out: GI50): 1.77 µM
CC50 (SNB-75; [18]): > 100 µM
TGI (SNB-75; read-out: TGI): 5.37 µM
GI50 (SNB-75; read-out: pGI50 (converted)): 1.78 µM
CC50 (SNB-75; [19]): > 100 µM
TGI (SNB-75; read-out: pTGI (converted)): 5.37 µM
growth at 0.01 µM (SK-OV-3 [6]): 100%
GI50 (CAKI-1 [7]; read-out: GI50): 2.48 µM
CC50 (CAKI-1 [7]; [18]): 56.3 µM
TGI (CAKI-1 [7]; read-out: TGI): 9.08 µM
GI50 (CAKI-1 [7]; read-out: pGI50 (converted)): 2.45 µM
CC50 (CAKI-1 [7]; [19]): 56.2 µM
TGI (CAKI-1 [7]; read-out: pTGI (converted)): 9.12 µM
growth at 1 µM (OVCAR-4): 88%
growth at 100 µM (OVCAR-5 [8]): -73%
growth at 0.01 µM (A498): 79%
growth at 100 µM (MDA-MB-435): -47%
growth at 1 µM (MDA-MB-231): 89%
growth at 1 µM (M14 [9]): 89%
GI50 (SK-MEL-5; read-out: GI50): 1.8 µM
CC50 (SK-MEL-5; [18]): 17.2 µM
TGI (SK-MEL-5; read-out: TGI): 4.39 µM
GI50 (SK-MEL-5; read-out: pGI50 (converted)): 1.78 µM
CC50 (SK-MEL-5; [19]): 17.4 µM
TGI (SK-MEL-5; read-out: pTGI (converted)): 4.37 µM
growth at 0.01 µM (NCI-H322M): 102%
GI50 (M14 [10]; read-out: GI50): 1.81 µM
TGI (M14 [10]; read-out: TGI): 3.92 µM
GI50 (M14 [10]; read-out: pGI50 (converted)): 1.82 µM
TGI (M14 [10]; read-out: pTGI (converted)): 3.89 µM
growth at 100 µM (Malme-3M [11]): -62%
growth at 1 µM (K562 [12]): 85%
GI50 (OVCAR-5 [13]; read-out: GI50): 3.38 µM
CC50 (OVCAR-5 [13]; [18]): 45.5 µM
TGI (OVCAR-5 [13]; read-out: TGI): 8.9 µM
GI50 (OVCAR-5 [13]; read-out: pGI50 (converted)): 3.39 µM
CC50 (OVCAR-5 [13]; [19]): 45.7 µM
TGI (OVCAR-5 [13]; read-out: pTGI (converted)): 8.91 µM
growth at 100 µM (SK-OV-3 [14]): 4%
growth at 1 µM (SK-OV-3 [15]): 98%
growth at 0.01 µM (K562 [16]): 107%
growth at 0.1 µM (Malme-3M [17]): 94%
